In paper PMC11645267, “Novel pharmacologic inhibition of lysine-specific demethylase 1 as a potential therapeutic for glioblastoma” (Cancer Gene Therapy, 2024):

Test system: KINGS1 and F3 cells
Assay: PARP cleavage (apoptosis) by western blot
Format: cell-based
Conditions: KINGS1 and F3, 5 μM
Text: Super-enhancers consist of enhancer clusters with abundant binding of transcription factors and are highly enriched with H3K27ac marks. The H3K4me2 increased regions included the MYC locus and H3K4me2 de novo regions comprised Nestin and SOX2 loci (Fig. 2F, Supplementary Fig. S5A). These regions were also identified as super-enhancers in GSCs using data from our previous study (Fig. 2F). Compared to the large increase in H3K4me2 in these regions, changes in H3K4me3 were subtle after S2172 treatment (only 2582 regions were acquired modification) (Fig. 2C). Increasing the me2/me3 ratio at H3K4 is associated with reduced gene expression.
Supplementary Figure. S3 Shinjo K. et al […]
B. Western blot analysis of LSD1,MYC, Nestin, SOX2,and ACTB in same cells as shown in panel A. ACTB was used as a loading control. […] Quantification of signal intensities of the Western blot (right panel). […] Right panel: Quantification of band signal intensities from the Western blot. […] The ratio was calculated by dividing the cleaved PARP band intensity by the full-length PARP band intensity. […]
A. Left panel: Western blot analysis of H3K4me1, H3K4me2, H3K4me3, and H3K9me2 after treatment with either DMSO or S2172 5μM for 96 h in normal neural stem cell F3 . […] Right panel: Quantification of signal intensities of the Western blot. […]
C. […] Right panel: Quantification of band signal intensities from the Western blot. […]

With `NC1CCC(NC2CC2c2cc(F)cc(F)c2OCc2ccccc2)CC1` (stereo not shown) [S2172] the cleaved-PARP levels was “not significantly increased”.
